Results: paper PMC8539097, “Structural Insight into a Yeast Maltase—The BaAG2 from Blastobotrys adeninivorans with Transglycosylating Activity” (Journal of Fungi, 2021)

Biological target: T1, BaAG2 (Blastobotrys adeninivorans, UniProt Z9CO09ION3)
T1 construct: wild type, recombinant from plasmid pURI3-BaAG2Cter in E. coli BL21(DE3), Ni-IMAC purified (plus SEC for crystals); domains span residues 1-581; most likely monomer
T1 sequence (Z9CO09ION3 1-580): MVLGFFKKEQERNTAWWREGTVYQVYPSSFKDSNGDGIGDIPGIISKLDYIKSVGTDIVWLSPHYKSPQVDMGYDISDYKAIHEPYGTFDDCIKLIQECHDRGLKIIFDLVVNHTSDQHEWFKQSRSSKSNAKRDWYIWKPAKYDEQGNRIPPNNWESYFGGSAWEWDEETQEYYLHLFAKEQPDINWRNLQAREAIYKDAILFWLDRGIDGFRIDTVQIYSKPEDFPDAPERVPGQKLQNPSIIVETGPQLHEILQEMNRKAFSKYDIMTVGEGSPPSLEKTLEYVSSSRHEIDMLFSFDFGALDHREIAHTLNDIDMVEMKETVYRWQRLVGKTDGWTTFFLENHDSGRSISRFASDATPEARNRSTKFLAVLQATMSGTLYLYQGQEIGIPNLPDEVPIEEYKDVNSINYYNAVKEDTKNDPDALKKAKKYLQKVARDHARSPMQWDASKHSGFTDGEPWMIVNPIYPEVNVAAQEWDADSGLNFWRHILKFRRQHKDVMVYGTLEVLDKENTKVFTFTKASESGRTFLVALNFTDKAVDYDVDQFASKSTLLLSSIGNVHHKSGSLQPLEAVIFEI
Assay: X-ray crystallography, crystal soaking, […] Å
Assay type: binding
Conditions: pH 5.5, 100 mM glucose soak; active site, subsite -1

Question: `OC[C@H]1OC(O)[C@H](O)[C@@H](O)[C@@H]1O` (stereo partly drawn) [D-glucose] was tested. Which “X-ray crystallography, crystal soaking, 2.13 Å” value did it give?
Answer: codes 7P01 (BaAG2-acarbose) and 7P07 (BaAG2-glucose)
